Laboratory results from patent US11179393B2, “Methods of treating or preventing preterm labor” (priority 2014, dated 2021).

Test system: muscarinic receptor
Assay: Test on salivary secretion in rat (oxotremorine-induced), compared with rhythmic bladder contraction test
Assay type: in vivo
Settings: anesthetized Wistar rat; ID50 = 50% inhibition of saliva, ED30 = 30% inhibition of bladder contraction
Protocol: a. Test on Rhythmic Bladder Contraction in Rat
A female Wistar rat (130-200 g) is subjected to urethane anesthesia (1.0 g/kg s.c.), followed by ligation of the ureter on the kidney side. A urethral catheter is allowed to remain in the bladder, and about 1.0 mL of physiological saline is injected into the bladder through the catheter to cause rhythmic bladder contraction. Intravesical pressure is measured by a pressure transducer. After rhythmic contraction continues stable for at least 5 minutes, the test compound is cumulatively administered from the external jugular vein. Five to ten minutes later, the intravesical pressure is measured. An inhibition ratio of bladder contraction is determined compared with the bladder contraction before administration of the test compound and the dose of the test compound required for 30% inhibition of the bladder contraction before administration is designated as ED30.
b. Test on Salivary Secretion in Rat
A male Wistar rat (160-190 g) is subjected to anesthesia with urethane (0.8 g/kg i.p.), and the test compound is administered (to the control group: solvent). Fifteen minutes later, 0.8 μmol/kg of oxotremorine is administered. In each case, the drug is administered through the femoral artery. The saliva secreted for 5 minutes after the administration of oxotremorine is collected and weighed. […]

CN1[C@@H]2CC[C@H]1C[C@@H](OC(=O)C(CO)c1ccccc1)C2 (stereo partly shown) [atropine]
ID50 value (salivary secretion) relative to ED30 value (rhythmic bladder contraction): substantially the same
